From patent publication US20230278972A1, “SUBSTITUTED HALOALKYL SULFONANILIDE HERBICIDES” (FMC Corporation, priority 2020, published 2023) come the findings set out here.

Common to all, as to format: in vivo
Assay [1] relates to galium (catchweed bedstraw, Galium aparine). The assay is described as follows: Test A1 postemergence, galium. The note with it: Postemergence. The method, boiled down: (§1)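 Seeds were first planted into a blend of loam soil and sand and given a preemergence directed soil spray. In parallel, pots of the same soil were sown for postemergence application once plants reached 2 to 10 cm and the one- to two-leaf stage. Both used surfactant-containing non-phytotoxic solvent formulations.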

In the next assay the test system is kochia (Bassia scoparia). The assay is described as follows: Test A1 postemergence, kochia. The note with it: Postemergence. The method, boiled down: as §1
A further assay deals with corn (Zea mays). Kind of assay: Test A1 postemergence, corn. The note with it: Postemergence. Put shortly: (§2)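 Both timings started from seed in a loam-sand blend. Preemergence pots got a directed soil application immediately; postemergence pots were sprayed when seedlings had one or two leaves and stood 2–10 cm. Each compound was prepared in a non-phytotoxic solvent plus surfactant.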

For assay [2], the system named is soybean (Glycine max). The assay is described as follows: Test A1 preemergence, soybean. The method, boiled down: as §2
The subject of assay [3] is Ryegrass, Italian (Italian ryegrass, Lolium multiflorum). The assay is described as follows: Test A1 postemergence, Ryegrass, Italian. The note with it: Postemergence. Put shortly: as §1
Assay [4] deals with Foxtail, Giant (giant foxtail, Setaria faberi). The assay is described as follows: Test A1 postemergence, Foxtail, Giant. The note with it: Postemergence. The method, boiled down:
as §1

In assay [5] the test system is Ryegrass, Italian (Italian ryegrass, Lolium multiflorum). The assay is described as follows: Test A1 preemergence, Ryegrass, Italian. The method, boiled down: as §2
Assay [6] has as its system blackgrass (Alopecurus myosuroides). Kind of assay: Test A1 postemergence, blackgrass. The note with it: Postemergence, 0 to 100 scale (0 no effect, 100 complete control). The method, boiled down: as §1
The subject of assay [7] is Pigweed, Palmer (palmer amaranth, palmer pigweed, Amaranthus palmeri). The assay is described as follows: Test A1 preemergence, Pigweed, Palmer. Put shortly: as §2
Assay [8] relates to soybean (Glycine max). The assay is described as follows: Test A1 postemergence, soybean. To be noted: Postemergence. The method, boiled down: as §1
The mark [9] stands for this setting: 31 g ai/ha, 0 to 100 scale (0 no effect, 100 complete control), 10 days.
Where [10] appears, read: 31 g ai/ha, 0 to 100 scale (0 no effect, 100 complete control).
Setting [11] is: 125 g ai/ha, 0 to 100 scale, 0 no effect, 100 complete control.

With `Cc1c(NS(=O)(=O)C(F)(F)F)cc(C(=O)N2CCOCC2)c(C)c1C` [Compound 289, 1,1,1-Trifluoro-N-[2,3,4-trimethyl-5-(4-morpholinylcarbonyl)phenyl]methanesulfonamide], the “Plant response rating, Galium” value is given as 60 in [1] (setting [9]) and 80 in assay [1] (125 g ai/ha, 0 to 100 scale). Further, the “Plant response rating, Kochia” value is listed as 20 in the assay with kochia (Bassia scoparia) (setting [9]) and 60 in the assay with kochia (Bassia scoparia) (125 g ai/ha, 0 to 100 scale). Also, the “Plant response rating, Corn” value in the assay on corn (Zea mays) (setting [9]) is listed as 0; in the assay with corn (Zea mays) (125 g ai/ha, 0 to 100 scale), 20. Moreover, the “Plant response rating, Soybean” value in the assay on soybean (Glycine max) [2] (setting [10]) worked out at 20; with soybean (Glycine max) [2] (setting [11]), 60; with soybean (Glycine max) [8] (setting [9]), 40; in the assay on soybean (Glycine max) [8] (125 g ai/ha, 0 to 100 scale) it was 50. For the same molecule, the “Plant response rating, Ryegrass, Italian” value turned out to be 30 in [3] (setting [9]); 60 in assay [3] (125 g ai/ha, 0 to 100 scale); 20 in assay [5] (setting [10]); 70 in assay [5] (setting [11]). For the same molecule, the “Plant response rating, Foxtail, Giant” value turned out to be 40 in assay [4] (setting [9]) and 90 in assay [4] (125 g ai/ha, 0 to 100 scale). Also, the “Plant response rating, Blackgrass” value in assay [6] (31 g ai/ha, 10 days) stood at 0; in [6] (125 g ai/ha), 10. Besides, the “Plant response rating, Pigweed, Palmer” value was found to be 90 in [7] (setting [10]) and 100 in assay [7] (setting [11]).

For the molecule `Cc1cc(C)c(N(C(=O)OC(C)C)S(=O)(=O)C(F)(F)F)cc1C1=NOC2CCCC12` (centres unmarked) [Compound 295], the “Plant response rating, Galium” value amounted to 50 in assay [1] (setting [9]) and 60 in [1] (125 g ai/ha, 0 to 100 scale). The “Plant response rating, Kochia” value stood at 0 in the assay with kochia (Bassia scoparia) (setting [9]) and 30 in the assay on kochia (Bassia scoparia) (125 g ai/ha, 0 to 100 scale). Besides, the “Plant response rating, Corn” value in the assay on corn (Zea mays) (setting [9]) was found to be 0; in the assay on corn (Zea mays) (125 g ai/ha, 0 to 100 scale), 0. In addition, the “Plant response rating, Soybean” value came to 0 in the assay on soybean (Glycine max) [2] (setting [10]); 0 in the assay on soybean (Glycine max) [2] (setting [11]); 20 in the assay on soybean (Glycine max) [8] (setting [9]); 50 in the assay with soybean (Glycine max) [8] (125 g ai/ha, 0 to 100 scale). The “Plant response rating, Ryegrass, Italian” value in assay [3] (setting [9]) was 0; in [3] (125 g ai/ha, 0 to 100 scale), 30; in assay [5] (setting [10]), 40; in [5] (setting [11]) it was 70. Moreover, the “Plant response rating, Foxtail, Giant” value was 0 in assay [4] (setting [9]) and 10 in assay [4] (125 g ai/ha, 0 to 100 scale). Further, the “Plant response rating, Blackgrass” value in assay [6] (31 g ai/ha, 10 days) was 0; in assay [6] (125 g ai/ha) it was 0. In addition, the results for the “Plant response rating, Pigweed, Palmer” value in assay [7] (setting [10]) and in [7] (setting [11]) were 0 and 80, respectively.

Regarding `Cc1cc(C)c(N(S(=O)(=O)C(F)(F)F)S(=O)(=O)C(F)(F)F)cc1C1=NOC2COCC12` (centres unmarked) [Compound 296], the “Plant response rating, Galium” value in [1] (setting [9]) is given as 50; in assay [1] (125 g ai/ha, 0 to 100 scale) it was 80. Besides, the “Plant response rating, Kochia” value in the assay with kochia (Bassia scoparia) (setting [9]) was found to be 20; with kochia (Bassia scoparia) (125 g ai/ha, 0 to 100 scale) it was 40. The “Plant response rating, Corn” value is given as 0 in the assay with corn (Zea mays) (setting [9]) and 0 with corn (Zea mays) (125 g ai/ha, 0 to 100 scale). Besides, the “Plant response rating, Soybean” value came to 20 with soybean (Glycine max) [2] (setting [10]); 30 in the assay on soybean (Glycine max) [2] (setting [11]); 30 with soybean (Glycine max) [8] (setting [9]); 40 in the assay on soybean (Glycine max) [8] (125 g ai/ha, 0 to 100 scale). Also, the “Plant response rating, Ryegrass, Italian” value worked out at 0 in assay [3] (setting [9]); 40 in [3] (125 g ai/ha, 0 to 100 scale); 0 in [5] (setting [10]); 90 in [5] (setting [11]). For the same molecule, the “Plant response rating, Foxtail, Giant” value was determined as 0 in [4] (setting [9]) and 10 in assay [4] (125 g ai/ha, 0 to 100 scale). Further, the “Plant response rating, Blackgrass” value in assay [6] (31 g ai/ha, 10 days) is on record as 0; in assay [6] (125 g ai/ha) it was 0. For the same molecule, the entries for the “Plant response rating, Pigweed, Palmer” value in [7] (setting [10]) and in assay [7] (setting [11]) were 10 and 80, respectively.

`Cc1cc(C)c(C2=NOC3COCC23)cc1NS(=O)(=O)C(F)(F)F` (centres unmarked) [Compound 297]: the “Plant response rating, Galium” value in [1] (setting [9]) is 80; in assay [1] (125 g ai/ha, 0 to 100 scale) it was 90. Moreover, the “Plant response rating, Kochia” value with kochia (Bassia scoparia) (setting [9]) is listed as 0; with kochia (Bassia scoparia) (125 g ai/ha, 0 to 100 scale), 60. Besides, the “Plant response rating, Corn” value with corn (Zea mays) (setting [9]) is recorded as 0; with corn (Zea mays) (125 g ai/ha, 0 to 100 scale), 0. For the same molecule, the “Plant response rating, Soybean” value came out at 0 with soybean (Glycine max) [2] (setting [10]); 50 with soybean (Glycine max) [2] (setting [11]); 30 in the assay on soybean (Glycine max) [8] (setting [9]); 50 in the assay with soybean (Glycine max) [8] (125 g ai/ha, 0 to 100 scale). Moreover, the “Plant response rating, Ryegrass, Italian” value in assay [3] (setting [9]) is reported as 0; in assay [3] (125 g ai/ha, 0 to 100 scale), 60; in assay [5] (setting [10]), 0; in [5] (setting [11]), 90. The “Plant response rating, Foxtail, Giant” value stood at 10 in [4] (setting [9]) and 60 in assay [4] (125 g ai/ha, 0 to 100 scale). Besides, the “Plant response rating, Blackgrass” value is 0 in assay [6] (31 g ai/ha, 10 days) and 0 in [6] (125 g ai/ha). In addition, the “Plant response rating, Pigweed, Palmer” value in assay [7] (setting [10]) amounted to 30; in [7] (setting [11]), 90.
